Data: patent US10131652B2, “Pyrimidinyloxy benzene derivatives as herbicides” (E. I. DU PONT DE NEMOURS AND COMPANY, priority 2014, dated 2018)

Assays:
Type in all cases: in vivo
[1] = tested on: barnyardgrass (Echinochloa crus-galli); test: Test D pre-/postemergence plant response; conditions: Postemergence; for Plant response rating (scale 0 to 100), Barnyardgrass: 16 g ai/ha; for Barnyardgrass plant response rating: 31 g ai/ha, scale 0 to 100 (0 no effect, 100 complete control); for Plant response rating, Barnyardgrass: scale 0 to 100, 0 no effect, 100 complete control
Outline: (§1)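 Two application timings were run together: preemergence onto seeded loam–sand pots, and postemergence onto 1- to 4-leaf plants (2 to 18 cm) in peat/vermiculite medium with starter nutrients. Formulation was a non-phytotoxic solvent with surfactant. Ratings, 0 to 100, were made visually versus controls after 13 to 15 greenhouse days.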

[2] = tested on: johnsongrass (Sorghum halepense); test: Test D pre-/postemergence plant response; conditions: Postemergence; for Plant response rating (scale 0 to 100), Johnsongrass: 16 g ai/ha; for Johnsongrass plant response rating: 31 g ai/ha, scale 0 to 100 (0 no effect, 100 complete control); for Plant response rating, Johnsongrass: scale 0 to 100, 0 no effect, 100 complete control
Outline: as §1

[3] = tested on: large (Lg) crabgrass (Digitaria sanguinalis); test: Test D pre-/postemergence plant response; conditions: Postemergence; for Plant response rating (scale 0 to 100), Crabgrass, Large: 16 g ai/ha; for Crabgrass, Large plant response rating: 31 g ai/ha, scale 0 to 100 (0 no effect, 100 complete control); for Plant response rating, Crabgrass, Large: scale 0 to 100, 0 no effect, 100 complete control
Outline: as §1

[4] = tested on: blackgrass (Alopecurus myosuroides); test: Test D pre-/postemergence plant response; conditions: Postemergence; for Plant response rating (scale 0 to 100), Blackgrass: 16 g ai/ha; for Blackgrass plant response rating: 31 g ai/ha, scale 0 to 100 (0 no effect, 100 complete control); for Plant response rating, Blackgrass: scale 0 to 100, 0 no effect, 100 complete control
Outline: as §1

[5] = tested on: pigweed (Amaranthus retroflexus); test: Test D pre-/postemergence plant response; conditions: Postemergence; for Plant response rating (scale 0 to 100), Pigweed: 16 g ai/ha; for Plant response rating, Pigweed: 125 g ai/ha
Outline: as §1

[6] = tested on: giant foxtail (Setaria faberii); test: Test D pre-/postemergence plant response; conditions: Postemergence; for Plant response rating (scale 0 to 100), Foxtail, Giant: 16 g ai/ha; for Foxtail, Giant plant response rating: 31 g ai/ha, scale 0 to 100 (0 no effect, 100 complete control); for Plant response rating, Foxtail, Giant: scale 0 to 100, 0 no effect, 100 complete control
Outline: as §1

soybean (Glycine max) = test: Test D pre-/postemergence plant response; conditions: Postemergence; for Plant response rating (scale 0 to 100), Soybean: 16 g ai/ha; for Plant response rating, Soybean: 125 g ai/ha
Outline: as §1

[7] = tested on: yellow nutsedge (Cyperus esculentus); test: Test D pre-/postemergence plant response; conditions: Postemergence; for Plant response rating (scale 0 to 100), Nutsedge, Yellow: 16 g ai/ha; for Plant response rating, Nutsedge, Yellow: 125 g ai/ha
Outline: as §1

[8] = tested on: morningglory (Ipomoea coccinea); test: Test D pre-/postemergence plant response; conditions: Postemergence; for Plant response rating (scale 0 to 100), Morningglory: 16 g ai/ha; for Plant response rating, Morningglory: 125 g ai/ha
Outline: as §1

[9] = tested on: ragweed (common ragweed, Ambrosia elatior); test: Test D pre-/postemergence plant response; conditions: Postemergence; for Plant response rating (scale 0 to 100), Ragweed: 16 g ai/ha; for Plant response rating, Ragweed: 125 g ai/ha
Outline: as §1

[10] = tested on: waterhemp (common waterhemp, Amaranthus rudis); test: Test D pre-/postemergence plant response; conditions: Postemergence; for Plant response rating (scale 0 to 100), Waterhemp: 16 g ai/ha; for Plant response rating, Waterhemp: 125 g ai/ha
Outline: as §1

[11] = tested on: barnyardgrass (Echinochloa crus-galli); test: Test B pre-/postemergence plant response
Outline: (§2)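 Steps: plant seeds in loam soil–sand mix; spray soil preemergence, and in parallel spray 2–10 cm one- to two-leaf plants postemergence; hold ~10 days in greenhouse; visually rate injury against untreated controls (0 = no effect, 100 = complete control).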

[12] = tested on: pigweed (Amaranthus retroflexus); test: Test B pre-/postemergence plant response
Outline: as §2

[13] = tested on: giant foxtail (Setaria faberii); test: Test B pre-/postemergence plant response
Outline: as §2

corn (Zea mays) = test: Test B pre-/postemergence plant response
Outline: as §2

[14] = tested on: wheat (Triticum aestivum); test: Test B pre-/postemergence plant response
Outline: as §2

[15] = 31 g ai/ha, scale 0 to 100 (0 no effect, 100 complete control)
[16] = 62 g ai/ha, scale 0 to 100, 0 no effect, 100 complete control
[17] = scale 0 to 100, 0 no effect, 100 complete control
[18] = Postemergence, 1000 g ai/ha, 0 to 100 scale (0 no effect, 100 complete control)
[19] = Preemergence, 1000 g ai/ha, 0 to 100 scale (0 no effect, 100 complete control)
[20] = 31 g ai/ha, Preemergence, 0 to 100 scale where 0 is no effect and 100 is complete control
[21] = 125 g ai/ha, postemergence, 0 to 100 scale, 0 no effect, 100 complete control
[22] = Postemergence, 31 g ai/ha, 0 to 100 scale (0 no effect, 100 complete control)
[23] = Preemergence, 125 g ai/ha, 0 to 100 scale (0 no effect, 100 complete control)

Structure (SMILES): Clc1cnc(Oc2ccccc2-c2cc(Cl)sn2)nc1 [Compound 192]
- Plant response rating (scale 0 to 100), Barnyardgrass [1]: 5
- Barnyardgrass plant response rating [1]: 5
- Plant response rating, Barnyardgrass ([1]; 62 g ai/ha): 5
- Plant response rating, Barnyardgrass ([1]; 125 g ai/ha): 5
- Plant response rating (scale 0 to 100), Johnsongrass [2]: 0
- Johnsongrass plant response rating [2]: 5
- Plant response rating, Johnsongrass ([2]; 62 g ai/ha): 5
- Plant response rating, Johnsongrass ([2]; 125 g ai/ha): 5
- Plant response rating (scale 0 to 100), Crabgrass, Large [3]: 5
- Crabgrass, Large plant response rating [3]: 5
- Plant response rating, Crabgrass, Large ([3]; 62 g ai/ha): 10
- Plant response rating, Crabgrass, Large ([3]; 125 g ai/ha): 10
- Plant response rating (scale 0 to 100), Blackgrass [4]: 0
- Blackgrass plant response rating [4]: 0
- Plant response rating, Blackgrass ([4]; 62 g ai/ha): 0
- Plant response rating, Blackgrass ([4]; 125 g ai/ha): 5
- Plant response rating (scale 0 to 100), Pigweed [5]: 15
- Pigweed plant response rating [5, 15]: 20
- Pigweed plant response rating [5, 16]: 55
- Plant response rating, Pigweed [5, 17]: 55
- Plant response rating (scale 0 to 100), Foxtail, Giant [6]: 10
- Foxtail, Giant plant response rating [6]: 25
- Plant response rating, Foxtail, Giant ([6]; 62 g ai/ha): 25
- Plant response rating, Foxtail, Giant ([6]; 125 g ai/ha): 15
- Plant response rating (scale 0 to 100), Soybean (soybean (Glycine max)): 10
- Soybean plant response rating (soybean (Glycine max); [15]): 30
- Soybean plant response rating (soybean (Glycine max); [16]): 55
- Plant response rating, Soybean (soybean (Glycine max); [17]): 85
- Plant response rating (scale 0 to 100), Nutsedge, Yellow [7]: 0
- Nutsedge, Yellow plant response rating [7, 15]: 5
- Nutsedge, Yellow plant response rating [7, 16]: 0
- Plant response rating, Nutsedge, Yellow [7, 17]: 5
- Plant response rating (scale 0 to 100), Morningglory [8]: 0
- Morningglory plant response rating [8, 15]: 0
- Morningglory plant response rating [8, 16]: 10
- Plant response rating, Morningglory [8, 17]: 45
- Plant response rating (scale 0 to 100), Ragweed [9]: 0
- Ragweed plant response rating [9, 15]: 5
- Ragweed plant response rating [9, 16]: 15
- Plant response rating, Ragweed [9, 17]: 45
- Plant response rating (scale 0 to 100), Waterhemp [10]: 20
- Waterhemp plant response rating [10, 15]: 40
- Waterhemp plant response rating [10, 16]: 55
- Plant response rating, Waterhemp [10, 17]: 70
- Plant response rating, Barnyardgrass [11, 18]: 100
- Plant response rating, Barnyardgrass [11, 19]: 100
- Plant response rating, Pigweed [12, 18]: 100
- Plant response rating, Pigweed [12, 19]: 100
- Plant response rating, Foxtail, Giant [13, 18]: 90
- Plant response rating, Foxtail, Giant [13, 19]: 100
- Plant response rating, Corn (corn (Zea mays); [18]): 30
- Plant response rating, Wheat [14, 18]: 30

Structure (SMILES): FC(Cl)(Cl)c1cc(-c2ccccc2Oc2ncc(Cl)cn2)no1 [Compound 198]
- Plant response rating (scale 0 to 100), Barnyardgrass [1]: 10
- Barnyardgrass plant response rating [1]: 10
- Plant response rating, Barnyardgrass ([1]; 62 g ai/ha): 20
- Plant response rating, Barnyardgrass ([1]; 125 g ai/ha): 35
- Plant response rating (scale 0 to 100), Johnsongrass [2]: 5
- Johnsongrass plant response rating [2]: 20
- Plant response rating, Johnsongrass ([2]; 62 g ai/ha): 35
- Plant response rating, Johnsongrass ([2]; 125 g ai/ha): 35
- Plant response rating (scale 0 to 100), Crabgrass, Large [3]: 10
- Crabgrass, Large plant response rating [3]: 15
- Plant response rating, Crabgrass, Large ([3]; 62 g ai/ha): 20
- Plant response rating, Crabgrass, Large ([3]; 125 g ai/ha): 30
- Plant response rating (scale 0 to 100), Blackgrass [4]: 5
- Blackgrass plant response rating [4]: 5
- Plant response rating, Blackgrass ([4]; 62 g ai/ha): 10
- Plant response rating, Blackgrass ([4]; 125 g ai/ha): 15
- Plant response rating (scale 0 to 100), Pigweed [5]: 85
- Pigweed plant response rating [5, 15]: 98
- Pigweed plant response rating [5, 16]: 90
- Plant response rating, Pigweed [5, 17]: 100
- Plant response rating (scale 0 to 100), Foxtail, Giant [6]: 10
- Foxtail, Giant plant response rating [6]: 15
- Plant response rating, Foxtail, Giant ([6]; 62 g ai/ha): 15
- Plant response rating, Foxtail, Giant ([6]; 125 g ai/ha): 25
- Plant response rating (scale 0 to 100), Soybean (soybean (Glycine max)): 10
- Soybean plant response rating (soybean (Glycine max); [15]): 25
- Soybean plant response rating (soybean (Glycine max); [16]): 30
- Plant response rating, Soybean (soybean (Glycine max); [17]): 60
- Plant response rating (scale 0 to 100), Nutsedge, Yellow [7]: 5
- Nutsedge, Yellow plant response rating [7, 15]: 5
- Nutsedge, Yellow plant response rating [7, 16]: 15
- Plant response rating, Nutsedge, Yellow [7, 17]: 10
- Plant response rating (scale 0 to 100), Morningglory [8]: 55
- Morningglory plant response rating [8, 15]: 55
- Morningglory plant response rating [8, 16]: 80
- Plant response rating, Morningglory [8, 17]: 85
- Plant response rating (scale 0 to 100), Ragweed [9]: 30
- Ragweed plant response rating [9, 15]: 55
- Ragweed plant response rating [9, 16]: 55
- Plant response rating, Ragweed [9, 17]: 60
- Plant response rating (scale 0 to 100), Waterhemp [10]: 85
- Waterhemp plant response rating [10, 15]: 85
- Waterhemp plant response rating [10, 16]: 95
- Plant response rating, Waterhemp [10, 17]: 98
- Plant response rating, Barnyardgrass [11, 20]: 10
- Plant response rating, Barnyardgrass [11, 21]: 50
- Plant response rating, Barnyardgrass [11, 22]: 10
- Barnyardgrass plant response rating [11, 23]: 40
- Plant response rating, Pigweed [12, 20]: 30
- Plant response rating, Pigweed [12, 21]: 100
- Plant response rating, Pigweed [12, 22]: 100
- Pigweed plant response rating [12, 23]: 100
- Plant response rating, Foxtail, Giant [13, 20]: 70
- Plant response rating, Foxtail, Giant [13, 21]: 90
- Plant response rating, Foxtail, Giant [13, 22]: 30
- Foxtail, Giant plant response rating [13, 23]: 90
- Plant response rating, Corn (corn (Zea mays); [21]): 20
- Plant response rating, Corn (corn (Zea mays); [22]): 10
- Plant response rating, Wheat [14, 21]: 10
- Plant response rating, Wheat [14, 22]: 0
